Measurements reported in US12152016B2, “Aryl hydrocarbon receptor modulators and uses thereof” (Beth Israel Deaconess Medical Center, Inc., priority 2018, dated 2024).

Tests used:
[1] = system: AHR-dependent transcription of the CYP1A1 gene; test: CYP1A1 induction in mouse macrophages; format: cell-based
Experimental: (§1) Mouse macrophages were also used to test AHR-dependent transcription of the CYP1A1 gene in vivo. Finally, the activity of exemplary compounds of Formula (I) described herein was tested in the human […] cell line U937. The U937 cell line is derived from a patient with diffuse histiocytic lymphoma. Tables 2-4 summarize structure-activity relationship data collected for exemplary, non-limiting compounds of Formula (I) described herein.

[2] = system: AHR-dependent transcription of the CYP1A1 gene; test: CYP1A1 induction in human U937 cells; format: cell-based; details: Human U937, 1 μM
Experimental: as §1

[3] = molecular target: T1, aryl hydrocarbon receptor (AHR) (Homo sapiens, UniProt P35869); test: XRE-driven luciferase reporter assay, human HepG2; details: for XRE luciferase Emax (fold): fold over vehicle; for XRE luciferase Emax (footnote c): Emax defined as fold increase at highest concentration tested (10 μM)
T1 sequence (P35869 11-848): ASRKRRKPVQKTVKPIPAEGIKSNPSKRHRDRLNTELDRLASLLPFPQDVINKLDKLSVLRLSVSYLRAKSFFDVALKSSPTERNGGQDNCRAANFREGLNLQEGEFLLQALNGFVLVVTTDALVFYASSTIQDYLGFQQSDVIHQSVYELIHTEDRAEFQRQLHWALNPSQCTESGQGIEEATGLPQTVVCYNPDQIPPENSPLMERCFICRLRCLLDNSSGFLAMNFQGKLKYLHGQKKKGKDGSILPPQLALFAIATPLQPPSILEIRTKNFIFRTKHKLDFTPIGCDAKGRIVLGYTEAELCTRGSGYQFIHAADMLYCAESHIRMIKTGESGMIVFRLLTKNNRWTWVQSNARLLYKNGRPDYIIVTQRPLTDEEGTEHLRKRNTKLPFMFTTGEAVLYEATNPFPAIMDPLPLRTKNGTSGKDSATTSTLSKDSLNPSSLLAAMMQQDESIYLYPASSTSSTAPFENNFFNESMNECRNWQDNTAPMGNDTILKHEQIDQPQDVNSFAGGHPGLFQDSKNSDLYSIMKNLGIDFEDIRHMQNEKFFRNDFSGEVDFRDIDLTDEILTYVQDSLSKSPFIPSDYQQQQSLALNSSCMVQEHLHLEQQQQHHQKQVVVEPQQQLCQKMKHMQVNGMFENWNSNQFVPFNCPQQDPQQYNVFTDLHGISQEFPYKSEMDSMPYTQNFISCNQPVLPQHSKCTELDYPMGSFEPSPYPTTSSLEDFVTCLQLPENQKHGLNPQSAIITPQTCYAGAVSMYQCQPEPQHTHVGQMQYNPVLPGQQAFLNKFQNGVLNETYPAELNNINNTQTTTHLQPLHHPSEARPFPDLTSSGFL
Experimental: The Human HepG2 cell line is a human liver cancer cell line, and provide a relevant in vitro AHR activity model. These Hep2G cells have been modified to stably express an AHR-responsive (XRE) firefly luciferase reporter gene to give Hep2G-XRE cells. The expression of luciferase should primarily reflect AHR-dependent transcription controlled by XRE.
Transfected cells were treated with AhR agonist (10^−5-10^−12) for 4.5 h in full medium. Cells were lysed and luciferase was activated using the Luciferase Assay System (Promega). Luminescence signals were measured with a FluroStar Omega microplate reader. Luminescence signals of compound treated groups were normalized to vehicle (DMSO) treated control and plotted as concentration dependent fold changes.

[4] = Plasma stability (LCMS/MS); format: in vitro ADME; details: incubated in plasma
[5] = Liver microsomal stability (LCMS/MS); format: in vitro ADME; details: in the presence of liver microsomes
[6] = XRE luciferase EC50, Human HepG2, least square curve fitting, >10,000 = does not reach 50% of Emax of ITE at 10 μM (highest concentration tested)
[7] = XRE luciferase EC50 (footnote a), Human HepG2, EC50 defined as concentration induced 50% of Emax of ITE

**Q.** With COc1cccc(C(=O)c2c[nH]c3ccccc23)n1 [Compound 5] as the compound, how does the “CYP1A1 induction (% of ITE ± SEM)” value ([1]; 5 nM) read?
**A.** The value was 57 ± 22 % of ITE.

**Q.** What about the “CYP1A1 induction (% of ITE ± SEM)” value ([1]; 50 nM) of the same compound?
**A.** Its value is 168 ± 86 % of ITE.

**Q.** And the “CYP1A1 induction (% of ITE ± SEM)” value ([1]; 5 μM)?
**A.** The value was 101 ± 33 % of ITE.

**Q.** What about the “CYP1A1 induction (% of ITE ± SEM)” value [2] of the same compound?
**A.** The value was 165 ± 27 % of ITE.

**Q.** What about the “XRE luciferase Emax (fold)” value ([3]; Human HepG2) of the same compound?
**A.** Its value is 48 fold.

**Q.** What about the EC50 [3, 6] of the same compound?
**A.** Its EC50 is 0.096 µM.

**Q.** What does the source list for COc1cccc(C(=O)c2c[nH]c3ccccc23)c1 [Compound 9]?
**A.** CYP1A1 induction (% of ITE ± SEM) ([1]; 50 nM): 9 ± 5 % of ITE; CYP1A1 induction (% of ITE ± SEM) [2]: 101 ± 12 % of ITE; XRE luciferase Emax (footnote c) ([3]; Human HepG2): (25)^c fold; EC50 [3, 6]: > 10 µM

**Q.** Which results are given for COC(=O)c1ccc(C(=O)c2c[nH]c3ccccc23)s1 [Compound 24]?
**A.** CYP1A1 induction (% of ITE ± SEM) ([1]; 5 nM): 60 ± 13 % of ITE; CYP1A1 induction (% of ITE ± SEM) ([1]; 50 nM): 99 ± 18 % of ITE; CYP1A1 induction (% of ITE ± SEM) ([1]; 5 μM): 59 ± 22 % of ITE; CYP1A1 induction (% of ITE ± SEM) [2]: 244 ± 28 % of ITE

**Q.** With O=C(c1cccc(-c2ccccc2)n1)c1c[nH]c2ccccc12 [Compound 113, 1H-indol-3-yl-(6-phenyl-2-pyridyl)methanone] as the compound, how does the “CYP1A1 induction (% of ITE ± SEM)” value ([1]; 50 nM) read?
**A.** The value was 91 ± 7 % of ITE.

**Q.** What about the “CYP1A1 induction (% of ITE ± SEM)” value ([1]; 5 μM) of the same compound?
**A.** Its value is 97 ± 9 % of ITE.

**Q.** And the plasma stability [4]?
**A.** The plasma stability was “stable”.

**Q.** And the “XRE luciferase Emax (footnote c)” value ([3]; Human HepG2)?
**A.** The value was “(114)^c fold”.

**Q.** What about the EC50 [3, 7] of the same compound?
**A.** Its EC50 is 0.0121 µM.

**Q.** What about the EC50 [3, 6] of the same compound?
**A.** The EC50 was 0.012 µM.

**Q.** What about the liver microsomal stability [5] of the same compound?
**A.** The liver microsomal stability was “rapidly metabolized”.

**Q.** Which results are given for COC(=O)c1cccc(C(=O)c2c(C)[nH]c3ccccc23)n1 [Compound 144, methyl 6-(2-methyl-1H-indole-3-carbonyl)pyridine-2-carboxylate]?
**A.** CYP1A1 induction (% of ITE ± SEM) ([1]; 5 μM): 6 ± 2 % of ITE; CYP1A1 induction (% of ITE ± SEM) [2]: 29 ± 14 % of ITE; XRE luciferase Emax (footnote c) ([3]; Human HepG2): (22)^c fold; EC50 [3, 6]: > 10 µM

**Q.** What does the source list for CCOC(=O)c1cccc(C(=O)c2c[nH]c3ccccc23)n1 [Compound 147, ethyl 6-(1H-indole-3-carbonyl)pyridine-2-carboxylate]?
**A.** CYP1A1 induction (% of ITE ± SEM) ([1]; 50 nM): 8 ± 2 % of ITE; CYP1A1 induction (% of ITE ± SEM) ([1]; 5 μM): 52 ± 28 % of ITE; fold less active / fold decrease in activity ([3]; AHR activity relative to compound #10): > 250 fold; XRE luciferase Emax (fold) ([3]; Human HepG2): 40 fold; EC50 [3, 6]: 0.84 µM

**Q.** Which “CYP1A1 induction (% of ITE ± SEM)” value [2] does the source give for COC(=O)c1cccc(C(=O)c2c[nH]c3ccccc23)c1 [Compound 202, methyl 3-(1H-indole-3-carbonyl)benzoate] here?
**A.** The value was 3 ± 1 % of ITE.

**Q.** Which results are given for COC(=O)c1cccc(C(=O)c2n[nH]c3ccccc23)c1 [reference compound]?
**A.** CYP1A1 induction (% of ITE ± SEM) ([1]; 50 nM): 14 ± 4 % of ITE; CYP1A1 induction (% of ITE ± SEM) ([1]; 5 μM): 90 ± 2 % of ITE; CYP1A1 induction (% of ITE ± SEM) [2]: 48 ± 6 % of ITE; XRE luciferase Emax (fold) ([3]; Human HepG2): 117 fold; EC50 [3, 6]: 0.68 µM

**Q.** What does the source list for COc1cccc(C(=O)c2n[nH]c3ccccc23)c1 [reference compound]?
**A.** CYP1A1 induction (% of ITE ± SEM) ([1]; 50 nM): 1 ± 0.2 % of ITE; CYP1A1 induction (% of ITE ± SEM) ([1]; 5 μM): 27 ± 3 % of ITE; CYP1A1 induction (% of ITE ± SEM) [2]: 194 ± 18 % of ITE; XRE luciferase Emax (footnote c) ([3]; Human HepG2): (87)^c fold; EC50 [3, 7]: 2 µM
